Some results are limits rather than exact numbers.

The subject of the first assay is PI3K. In words: Cellular testing of PI3K inhibitors: P-S473-PKB Luminex assay in PC3 cells. It counts as cell-based. The conditions noted are these: PI3K-dependent phosphorylation of PKB at Serin 473 in PC3 cells. The procedure:
Description of the Method for the Cellular Testing of PI3K Inhibitors
The cellular assay for determination of the P-S473-PKB level is carried out as a Luminex assay in 96-well format in PC3 cells.
PC3 cells are sown out with 20,000 cells per well in 100 μl medium (45% RPMI1460/45% Ham's F12/10% FCS) and incubated on the following day for 30 min with a serial dilution of the test substance (7 concentrations) under serum-free conditions. […] The lysates are incubated overnight at 4° C. with shaking with Luminex beads to which an anti-total PKB antibody is coupled. The detection is carried out on the following day by addition of a P-S473-PKB antibody and a species-specific PE-labelled secondary antibody. The detection of P-S473-PKB is carried out by measurement in a Luminex 100 instrument by determination of 100 events per cavity in a measurement time of 60 sec. […] The values of the preparations treated with test substance are calculated from this as percent of control, and IC50 values are determined by means of RS1.
In turn, `COc1cc(Nc2nc3ccccc3nc2NS(=O)(=O)c2cn(C)c(CN(C)C)n2)c(OCCC(C)O)c(OC)c1` (centres unmarked) [drawing 153] showed a half-inhibitory concentration (IC50) of 0.0046 µM.
The same measure, in the same setting: with `COc1cc(Nc2nc3ccccc3nc2NS(=O)(=O)c2cn(C)cn2)cc(OC)c1` [reference compound] the figure was 0.985 µM; with `COc1cc(Nc2nc3ccccc3nc2NS(C)(=O)=O)c(OCCC(C)O)c(OC)c1` (centres unmarked) [drawing 155], 0.038 µM.
The same measure, in the same setting: then `COc1ccc(CCCO)c(Nc2nc3ccccc3nc2NS(=O)(=O)C2CCS(=O)(=O)C2)c1` (centres unmarked) [reference compound], with 0.97 µM.

Staying with this assay, now noted: PI3 kinase inhibition, cell.
As for `COc1cc(Nc2nc3ccccc3nc2NS(=O)(=O)c2ccn(C)n2)c(OCCC(C)(C)O)c(OC)c1` [Compound A125], the IC50 was 0.001 to 0.1 µM.
Turning to `COc1cc(Nc2nc3ccccc3nc2NS(=O)(=O)c2ccn(CC(=O)N(C)C)n2)c(OCCC(C)O)c(OC)c1` (centres unmarked) [Compound A120], the concentration for half-maximal inhibition (IC50) was in the range of 0.001 to 0.1 µM.
Same read-out and setting: with `COc1cc(Nc2nc3ccccc3nc2NS(=O)(=O)c2ccn(CCN(C)C)n2)c(OCCCO)c(OC)c1` [Compound A130, 1-(2-Dimethylaminoethyl)-1H-pyrazole-3-sulfonic acid {3-[2-(3-hydroxypropoxy)-3,5-dimethoxy-phenylamino]quinoxalin-2-yl} amide] the figure was 0.001 to 0.1 µM.
For `COc1cc(Nc2nc3ccccc3nc2NS(=O)(=O)c2ccn(C)n2)c(OCCC(C)O)c(OC)c1` (centres unmarked) [Compound A100], the IC50 was in the range of 0.001 to 0.1 µM.
The molecule `COc1cc(Nc2nc3ccccc3nc2NS(=O)(=O)c2ccncc2)c(OCCCO)c(OC)c1` [Compound A21] yielded an IC50 greater than 10 µM.
Molecule `COc1cc(Nc2nc3ccccc3nc2NS(=O)(=O)c2cccs2)c(OCCOCCO)c(OC)c1` [Compound A64] had an IC50 of 0.001 to 0.1 µM.
Still for that read-out and setting: then `COc1cc(Nc2nc3ccccc3nc2NS(=O)(=O)c2cccnc2)c(OCCCO)c(OC)c1` [Compound A79], with 0.1 to 10 µM.
For `COc1cc(Nc2nc3ccccc3nc2NS(=O)(=O)c2ccc(C#N)cc2)c(OC)c(OC)c1` [Compound A91], the IC50 is 0.001 to 0.1 µM.
On the same count and under the same terms, then `COc1cc(Nc2nc3ccccc3nc2NS(=O)(=O)C(F)F)c(OCCCO)c(OC)c1` [Compound A114], with 0.1 to 10 µM.
The same measure, in the same setting: with `CCN(CC)Cc1nc(S(=O)(=O)Nc2nc3ccccc3nc2Nc2cc(OC)cc(OC)c2OCCCO)cn1C` [Compound A126] the figure was 0.1 to 10 µM; with `COc1cc(Nc2nc3ccccc3nc2NS(=O)(=O)c2ccc(C#N)cc2)c(OCC[S+]([O-])CCO)c(OC)c1` (centres unmarked) [Compound A72], 0.001 to 0.1 µM.
On the same count and under the same terms, then `COc1cc(Nc2nc3ccccc3nc2NS(=O)(=O)c2cccnc2)c(OCCN(C)CCO)c(OC)c1` [Compound A68], with 0.1 to 10 µM; and `COc1cc(Nc2nc3ccccc3nc2NS(=O)(=O)c2ccc(C#N)cc2)c(CCCCO)c(OC)c1` [Compound A6], with 0.001 to 0.1 µM; and `COc1cc(Nc2nc3ccccc3nc2NS(=O)(=O)c2cn(C)cn2)c(OCCO)c(OC)c1` [Compound A89], with 0.001 to 0.1 µM.
`COc1cc(Nc2nc3ccccc3nc2NS(=O)(=O)c2ccc(C#N)cc2)c(OCC(O)CO)c(OC)c1` (centres unmarked) [Compound A74] showed an IC50 of 0.001 to 0.1 µM.
In the case of `COc1cc(Nc2nc3ccccc3nc2NS(=O)(=O)c2cnn(C)c2)c(OCCCO)c(OC)c1` [Compound A44], the IC50 is 0.001 to 0.1 µM.
`COc1cc(Nc2nc3ccccc3nc2NS(=O)(=O)c2cccc(CN3CCC3)c2)c(OCCCO)c(OC)c1` [Compound A116, 3-Azetidin-1-ylmethyl-N-{3-[2-(3-hydroxypropoxy)-3,5-dimethoxyphenylamino]-quinoxalin-2-yl}-benzenesulfonamide]: the IC50 lay in the range of 0.001 to 0.1 µM.
On the same count and under the same terms, with `COc1cc(Nc2nc3ccccc3nc2NS(=O)(=O)c2cn(C)cn2)c(OCCS(=O)(=O)CCO)c(OC)c1` [Compound A77] the figure was 0.1 to 10 µM; with `COc1cc(Nc2nc3ccccc3nc2NS(=O)(=O)CCCS(C)(=O)=O)c(OCCCO)c(OC)c1` [Compound A36], 0.001 to 0.1 µM.
`COc1cc(Nc2nc3ccccc3nc2NS(=O)(=O)c2cn(C)cn2)c(OCC(O)CO)c(OC)c1` (centres unmarked) [Compound A75] showed an IC50 of 0.1 to 10 µM.
Same read-out and setting: with `COc1cc(Nc2nc3ccccc3nc2NS(=O)(=O)c2cn(C)cn2)c2oc(C(=O)N(C)C)cc2c1` [Compound A9] the figure was 0.1 to 10 µM; with `COc1cc(Nc2nc3ccccc3nc2NS(=O)(=O)c2ccc(F)c(F)c2)c(OCCOCCO)c(OC)c1` [Compound A73], 0.1 to 10 µM.
For the molecule `COc1cc(Nc2nc3ccccc3nc2NS(=O)(=O)c2ccc(F)c(F)c2)c(OCCCO)c(OC)c1` [Compound A71], the IC50 is 0.001 to 0.1 µM.
Still for that read-out and setting: then `COc1cc(Nc2nc3ccccc3nc2NS(=O)(=O)c2ccc(CN(C)C)cc2)c(OCCOCCO)c(OC)c1` [Compound A57, 4-Dimethylaminomethyl-N-(3-{2-[2-(2-hydroxy-ethoxy)ethoxy]-3,5-dimethoxyphenylamino}-quinoxalin-2-yl)benzenesulfonamide], with 0.1 to 10 µM.
The same measure, in the same setting: then `COc1cc(Nc2nc3ccccc3nc2NS(=O)(=O)c2ccn(CCN(C)C)n2)c(OCCC(C)O)c(OC)c1` (centres unmarked) [Compound A129, 1-(2-Dimethylaminoethyl)-1H-pyrazole-3-sulfonic acid {3-[2-(3-hydroxybutoxy)-3,5-dimethoxy-phenylamino]quinoxalin-2-yl} amide], with 0.001 to 0.1 µM; and `COc1cc(Nc2nc3ccccc3nc2NS(=O)(=O)c2cncs2)c(OCCCO)c(OC)c1` [Compound A22], with 0.001 to 0.1 µM; and `CCOC(=O)Nc1ccc(S(=O)(=O)Nc2nc3ccccc3nc2Nc2cc(OC)cc(OC)c2OCCCO)cc1` [Compound A34], with 0.1 to 10 µM.
In turn, `COc1cc(Nc2nc3ccccc3nc2NS(=O)(=O)C(F)(F)F)c(OC)c(OC)c1` [Compound A40] displayed an IC50 of 0.001 to 0.1 µM.
On to `COc1cc(Nc2nc3ccccc3nc2NS(=O)(=O)c2ccc(C(=O)N3CCC3)cc2)c(OCCCO)c(OC)c1` [Compound A102], for which the IC50 lay within 0.001 to 0.1 µM.
The same measure, in the same setting: then `COc1cc(Nc2nc3ccccc3nc2NS(=O)(=O)CCC#N)c(OCCCO)c(OC)c1` [Compound A96], with 0.1 to 10 µM; and `COc1cc(Nc2nc3ccccc3nc2NS(=O)(=O)c2cn(C)cn2)c(OC)c(OC)c1` [Compound A92], with 0.1 to 10 µM; and `COc1cc(Nc2nc3ccccc3nc2NS(=O)(=O)c2ccc(C(=O)N3CC(F)(F)C3)cc2)c(OCCCO)c(OC)c1` [Compound A98], with 0.1 to 10 µM.
Same read-out and setting: then `COc1cc(Nc2nc3ccccc3nc2NS(=O)(=O)c2cn(C)c(CN(C)C)n2)c(CCCCO)c(OC)c1` [Compound A94], with 0.1 to 10 µM; and `COc1cc(Nc2nc3ccccc3nc2NS(=O)(=O)c2ccn(C)n2)c(OCCOCCO)c(OC)c1` [Compound A112], with 0.1 to 10 µM.
Same read-out and setting: then `COc1cc(Nc2nc3ccccc3nc2NS(=O)(=O)C(F)(F)F)c(OCCOCCO)c(OC)c1` [Compound A49], with 0.001 to 0.1 µM.
In the case of `COc1cc(Nc2nc3ccccc3nc2NS(=O)(=O)c2cnn(CCN(C)C)c2)c(OCCCO)c(OC)c1` [Compound A23, 1-(2-Dimethylamino-ethyl)-1H-pyrazole-4-sulfonic acid {3-[2-(3-hydroxypropoxy)-3,5-dimethoxy-phenylamino]quinoxalin-2-yl} amide], the IC50 lay in the range of 0.1 to 10 µM.
Still for that read-out and setting: then `COc1cc(Nc2nc3ccccc3nc2NS(=O)(=O)c2cn(C)c(CN(C)C)n2)c(OCCC(C)(C)O)c(OC)c1` [Compound A128], with 0.1 to 10 µM; and `COc1cc(Nc2nc3ccccc3nc2NS(=O)(=O)c2ccc(NC(C)=O)cc2)c(OCCCO)c(OC)c1` [Compound A50], with 0.001 to 0.1 µM.
Still for that read-out and setting: then `COc1cc(Nc2nc3ccccc3nc2NS(=O)(=O)c2ccc(NC(C)=O)cc2)c(OCCOCCO)c(OC)c1` [Compound A62], with 0.1 to 10 µM.
On the same count and under the same terms, with `COc1cc(Nc2nc3ccccc3nc2NS(=O)(=O)c2ccc(C#N)s2)c(OCCOCCO)c(OC)c1` [Compound A59] the figure was 0.001 to 0.1 µM.
Regarding `COc1cc(Nc2nc3ccccc3nc2NS(=O)(=O)c2ccccc2OC)c(OCCCO)c(OC)c1` [Compound A26], the 50% inhibitory concentration (IC50) lay within 0.1 to 10 µM.
On the same count and under the same terms, with `COc1cc(Nc2nc3ccccc3nc2NS(=O)(=O)c2cn(C)cn2)c2c(c1)OCCO2` [Compound A10] the figure was 0.1 to 10 µM.
Molecule `COc1cc(Nc2nc3ccccc3nc2NS(=O)(=O)c2ccccc2)c(OCCOCCO)c(OC)c1` [Compound A58] displayed an IC50 of 0.001 to 0.1 µM.
In turn, `COc1cc(Nc2nc3ccccc3nc2NS(=O)(=O)c2cccc(C(=O)N(C)C)c2)c(OCCCO)c(OC)c1` [Compound A97] gave an IC50 of 0.1 to 10 µM.
Same read-out and setting: with `COc1cc(Nc2nc3ccccc3nc2NS(=O)(=O)c2ccc(C#N)s2)c(OCCCO)c(OC)c1` [Compound A51] the figure was 0.001 to 0.1 µM; with `COc1cc(Nc2nc3ccccc3nc2NS(=O)(=O)c2ccn(C)n2)c(CCCCO)c(OC)c1` [Compound A117], 0.001 to 0.1 µM; with `COc1cc(Nc2nc3ccccc3nc2NS(=O)(=O)c2ccc(C#N)cc2)c(OCCC(C)O)c(OC)c1` (centres unmarked) [Compound A45], 0.001 to 0.1 µM.
Same read-out and setting: with `COc1cc(C)c(OC)c(Nc2nc3ccccc3nc2NS(=O)(=O)c2cn(C)cn2)c1` [Compound A11] the figure was 0.1 to 10 µM.
Molecule `COc1cc(Nc2nc3ccccc3nc2NS(=O)(=O)C(F)(F)F)c(OCCCO)c(OC)c1` [Compound A39] displayed an IC50 of 0.001 to 0.1 µM.
The same measure, in the same setting: with `COc1cc(Nc2nc3ccccc3nc2NS(C)(=O)=O)c(OCCCO)c(OC)c1` [Compound A25] the figure was 0.1 to 10 µM; with `COc1cc(Nc2nc3ccccc3nc2NS(=O)(=O)c2ccc(C#N)cc2)c(CCCN(C)C)c(OC)c1` [Compound A2], 0.1 to 10 µM.
The same measure, in the same setting: with `COc1cc(Nc2nc3ccccc3nc2NS(=O)(=O)c2cnn(C(F)F)c2)c(OCCCO)c(OC)c1` [Compound A29] the figure was 0.001 to 0.1 µM.

One may read the IC50 as the concentration at which inhibition is half-maximal. Read a high IC50 as weaker potency in that assay.

The values are drawn from patent publication US8895559B2, “Quinoxalines derivatives and pharmaceutical compositions and kits” (Merck Patent GmbH, priority 2010, dated 2014).
